As a reminder, the IC50 is the concentration needed to halve the response being measured.

Six molecules from patent publication US6248750A, “9-hydroxyamino tetrahydroacridine and related compounds” (Hoechst Roussel Pharmaceuticals, priority 2000, dated 2001) can be followed below.

In one experiment the target is acetylcholinesterase (Homo sapiens, UniProt P22303). The experiment can be described thus: biochemical.
The test system of the next experiment is mice. The experiment in a line: Dark Avoidance Assay (reversal of scopolamine induced memory deficit). Type of experiment: in vivo. Particulars: retest after 24 hours.

The structures appear in SMILES notation. Counter-ions that a name gives are not always drawn. Like-named read-outs stand apart in the source and are kept apart here.

Sequence of acetylcholinesterase (P22303 32-614): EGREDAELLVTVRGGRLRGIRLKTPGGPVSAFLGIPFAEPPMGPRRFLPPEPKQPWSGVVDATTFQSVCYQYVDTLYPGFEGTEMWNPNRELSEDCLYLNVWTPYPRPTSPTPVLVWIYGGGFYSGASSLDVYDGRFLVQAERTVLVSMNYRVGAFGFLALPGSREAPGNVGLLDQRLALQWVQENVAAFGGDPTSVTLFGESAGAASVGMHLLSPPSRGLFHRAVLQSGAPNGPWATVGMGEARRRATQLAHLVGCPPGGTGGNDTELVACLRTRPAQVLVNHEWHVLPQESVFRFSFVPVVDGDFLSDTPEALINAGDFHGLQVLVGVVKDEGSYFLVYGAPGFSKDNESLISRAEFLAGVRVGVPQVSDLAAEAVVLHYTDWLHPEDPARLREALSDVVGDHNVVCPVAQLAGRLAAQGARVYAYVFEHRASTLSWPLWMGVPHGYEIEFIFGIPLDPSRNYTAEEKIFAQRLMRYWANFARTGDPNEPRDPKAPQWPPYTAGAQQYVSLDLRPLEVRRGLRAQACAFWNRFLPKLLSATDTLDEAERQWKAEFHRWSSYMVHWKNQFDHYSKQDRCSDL
Procedure for mice: In this assay mice are tested for their ability to remember an unpleasant stimulus for a period of 24 hours. A mouse is placed in a chamber that contains a dark compartment; a srong incandescent light drives it to the dark compartment, where an electric shock is administered through metal plates on the floor. The animal is removed from the testing apparatus and tested again, 24 hours later, for the ability to remember the electric shock.
If scopolamine, an anticholinergic that is known to cause memory impairment, is administered before an animal's initial exposure to the test chamber, the animal re-enters the dark compartment shortly after being placed in the test chamber 24 hours later.

In the case of `CCCONc1c2c(nc3ccccc13)CCCC2` [N-Propyloxy-1,2,3,4-tetrahydro-9-acridinamine, oxalate, hemihydrate], the IC50 on acetylcholinesterase (read-out: Cholinesterase Inhibition IC50, photometric method of Ellman et al.) worked out at 0.83 µM.
As to `Fc1ccccc1CONc1c2c(nc3ccccc13)CCCC2` [N-(2-Fluorobenzyloxy)-1,2,3,4-tetrahydro-9-acridinamine], the half-maximal inhibitory concentration (IC50) at acetylcholinesterase was 5.2 µM.
Regarding `Nc1c2c(nc3ccccc13)CCCC2` [9-Amino-1,2,3,4-tetrahydroacridine, reference compound], the “% Animals with Scopolamine Induced memory deficit reversed” value (“% Animals” below) in the experiment on mice (dose 0.31 mg/kg s.c.) turned out to be 20%.
`c1ccc(CONc2c3c(nc4ccccc24)CCCC3)cc1` [N-Benzyloxy-1,2,3,4-tetrahydro-9-acridinamine] gave an IC50 on acetylcholinesterase of 6.1 µM.
On to `CON(C)c1c2c(nc3ccccc13)CCCC2` [N-Methoxy-N-methyl-1,2,3,4-tetrahydro-9-acridinamnine hydrochloride], for which the concentration for half-maximal inhibition (IC50) on acetylcholinesterase (read-out: Cholinesterase Inhibition IC50) was 27 µM. Further, the “% Animals” value with mice (dose 1.0 mg/kg s.c.) stood at 27%.
`CONc1c2c(nc3ccccc13)CCCC2.Cl` [N-Methoxy-1,2,3,4-tetrahydro-9-acridinamine hydrochloride] showed an IC50 against acetylcholinesterase of 0.51 µM. Also, in the experiment on mice (dose 1.0 mg/kg s.c.), the “% Animals” value amounted to 27%.
